The text below walks through data of patent publication US20220289686A1, “COMPOSITIONS OF NRF2 INHIBITING AGENTS AND METHODS OF USE THEREOF” (Washington University, priority 2021, published 2022).

The test system of assay [1] is NRF2 activity in H1299-NQO1-YFP cells. The assay is described as follows: NRF2 activity reporter IC50 in H1299-NQO1-YFP cells vs NRF2 pathway activators (IncuCyte, YFP/mCherry). Type of assay: cell-based. On the procedure: Readings were taken every 2 hours for at least 24 hours. […] Readings were also taken every 2 hours for 96 hours in and IncuCyte S3.
YFP total intensity (correlating to NRF2 activity) was normalized to NLS-mCherry (cell number) total intensity to give a ratio (YFP/mCherry). Ratios at one time point at least 24 hours post compounds were added were used. These numbers were then plotted in Graphpad Prism to calculate IC50s. […] From three biological replicates, percent confluence was used for proliferation assays to calculate IC50s, calculations performed using Graphpad Prism.

The subject of a further assay is NRF2 protein. The assay is described as follows: Western blot analysis of NRF2 protein abundance and downstream targets in cell lines. To be noted: for NRF2 protein abundance: western blot, 24-48 hours, PYR 10 μM, analogs 1 μM (104 in HEK293T 10 μM), MTX and PEM 0.1 μM, CG 10 μM. Type of assay: cell-based. The procedure: Western Blots: KYSE70, HEK293T cells were plated and 24 hours later treated with compounds (see figure legends for details). Either at 24 or 48 hours later, cells were scrapped in RIPA buffer (0.2% deoxycholate, 0.1% SDS, 1% NP40, 150 mM NaCl, 50 mM Tris pH 7.4, 2 mM EDTA) supplemented with protease and phosphatase inhibitors, cleared at 14000×g for 15 minutes at 4° C., and supernatants were quantified by BCA assay (Pierce, 23225). Protein samples (20 μg) were prepared with 1×LDS buffer with 100 mM DTT, ran on NuPAGE 4-12% Bis-tris gels, and transferred onto a […] nitrocellulose membrane (Thermo, 88018). All blots were blocked in 5% milk in TBST for 30 minutes. After incubation of the primary antibody overnight at 4° C. and washed three times with 1×TBST, blots were incubated with LI-COR secondary antibodies for 1-2 hours, washed in 1×TBST thrice, and then imaged via a LI-COR Odyssey instrument (Li-COR, Lincoln, Nebr.).

The mark [2] stands for this setting: Table 1, activator CDDO 0.1 μM, H1299-NQO1-YFP cells, read-out: CDDO 0.1 μM IC50 μM ± SEM.
Where [3] appears, read: Table 1, activator SULF 2 μM, H1299-NQO1-YFP cells, read-out: SULF 2 μM IC50 μM ± SEM.
The mark [4] stands for this setting: Table 1 and text, average over activators CDDO, PRL295, SULF, H1299-NQO1-YFP cells, read-out: Avg IC50.
The mark [5] stands for this setting: Table 6 NRF2 inhibitors, read-out: Avg IC50.
[6] abbreviates: read-out: PRL295 5 μM IC50 AM ± SEM, Table 1, activator PRL295 5 μM, H1299-NQO1-YFP cells.

For orientation: IC50 means the concentration that inhibits the measured activity by half.

The structures appear in SMILES notation. “Also recorded” adds a separate entry of the source. Read-outs that look alike come from different tables or passages of the source.

Regarding `Nc1ncc(-c2ccc(Cl)cc2)c(N)n1` [WCDD103, 5-(4-chlorophenyl)pyrimidine-2,4-diamine], the IC50 was found to be 16.9 ± 2.56 µM in assay [1] (setting [2]); 12.5 ± 0.798 µM in assay [1] (setting [3]); 13.1 µM in assay [1] (setting [4]); 13.1 µM in assay [1] (setting [5]); 9.99 ± 0.0737 µM in assay [1] (setting [6]).

In the case of `CCc1nc(N)nc(N)c1-c1cccc(Cl)c1` [WCDD104, 5-(3-chlorophenyl)-6-ethylpyrimidine-2,4-diamine], the IC50 in assay [1] (setting [2]) was 0.103 ± 0.001 µM; in assay [1] (setting [3]), 0.129 ± 0.003 µM; in assay [1] (setting [4]) it was 0.1 µM; in assay [1] (setting [5]) it was 0.098 µM; in assay [1] (setting [6]), 0.061 ± 0.003 µM; in assay [1] (unit inferred, read-out: IC50), 0.1 µM. Moreover, the “NRF2 protein on co-treatment with Bortezomib” value with NRF2 protein (BORT 0.04 μM co-treatment, HEK293T, H1299) is reported as “demonstrated a proteasomal requirement for activity”. The NRF2 protein abundance entry in the assay with NRF2 protein was “inhibition of NRF2 protein abundance and downstream target gene expression; also recorded: decrease NRF2 protein abundance”.

Regarding `CCc1nc(N)nc(N)c1-c1ccc(C(C)(F)F)cc1` [WCDD105, 5-(4-(1,1-difluoroethyl)phenyl)-6-ethylpyrimidine-2,4-diamine], the IC50 turned out to be 5.12 ± 0.074 µM in assay [1] (setting [2]); 3.279 ± 0.006 µM in assay [1] (setting [3]); 4.04 µM in assay [1] (setting [4]); 4.04 µM in assay [1] (setting [5]); 3.74 ± 0.499 µM in assay [1] (setting [6]).

On to `CCc1nc(N)nc(N)c1-c1ccc(S(=O)(=O)C2CCCC2)cc1` [WCDD106, 5-(4-(cyclopentylsulfonyl)phenyl)-6-ethylpyrimidine-2,4-diamine], for which the concentration for half-maximal inhibition (IC50) in assay [1] (setting [4]) and in assay [1] (setting [5]) was > 20 µM in each case.

For the molecule `CCc1nc(N)nc(N)c1-c1ccc(S(=O)(=O)N2CC3(COC3)C2)cc1` [WCDD107, 5-(4-((2-oxa-6-azaspiro[3.3]heptan-6-yl)sulfonyl)phenyl)-6-ethylpyrimidine-2,4-diamine], the IC50 in assay [1] (setting [4]) and in assay [1] (setting [5]) was > 20 µM in each case.

With `CCc1nc(N)nc(N)c1-c1ccc(S(=O)(=O)C2CC3CC3C2)cc1` (stereo not shown) [WCDD108, 5-(4-(bicyclo[3.1.0]hexan-3-ylsulfonyl)phenyl)-6-ethylpyrimidine-2,4-diamine], the IC50 in assay [1] (setting [2]) is 16.9 ± 0.208 µM; in assay [1] (setting [3]), 12.56 ± 0.103 µM; in assay [1] (setting [4]), 14.9 µM; in assay [1] (setting [5]) it was 14.9 µM; in assay [1] (setting [6]), 15.2 ± 1.29 µM.

In the case of `CCc1nc(N)nc(N)c1-c1ccc(N2CC3CC3C2)cc1` (stereo not shown) [WCDD110, 5-(4-(3-azabicyclo[3.1.0]hexan-3-yl)phenyl)-6-ethylpyrimidine-2,4-diamine], the IC50 in assay [1] (setting [4]) and in assay [1] (setting [5]) was > 20 µM in each case.

As to `CCc1nc(N)nc(N)c1-c1ccccc1` [WCDD111, 6-ethyl-5-phenylpyrimidine-2,4-diamine], the IC50 amounted to 1.1 ± 0.016 µM in assay [1] (setting [2]); 0.91 ± 0.01 µM in assay [1] (setting [3]); 1.18 µM in assay [1] (setting [4]); 1.18 µM in assay [1] (setting [5]); 1.51 ± 0.0329 µM in assay [1] (setting [6]).

Take `CCC1=NC(N)=NC(=O)C1c1ccc(Cl)cc1` (stereo not shown) [WCDD112, 2-amino-5-(4-chlorophenyl)-6-ethylpyrimidin-4(5H)-one]: the IC50 in assay [1] (setting [2]) was determined as 19.8 ± 0.338 µM; in assay [1] (setting [3]) it was 10.92 ± 0.0655 µM; in assay [1] (setting [4]), 13.9 µM; in assay [1] (setting [5]), 13.9 µM; in assay [1] (setting [6]), 10.8 ± 0.62 µM.

As to `CCc1nc(N)nc(N)c1-c1cc(Cl)cc(Cl)c1` [WCDD114, 5-(3,5-dichlorophenyl)-6-ethylpyrimidine-2,4-diamine], the half-maximal inhibitory concentration (IC50) in assay [1] (setting [2]) amounted to 0.134 ± 0.014 µM; in assay [1] (setting [3]), 0.111 ± 0.009 µM; in assay [1] (setting [4]) it was 0.1 µM; in assay [1] (setting [5]), 0.108 µM; in assay [1] (setting [6]) it was 0.079 ± 0.002 µM; in assay [1] (unit inferred, read-out: IC50), 0.1 µM. Moreover, in the assay with NRF2 protein, the NRF2 protein abundance entry is on record as “decrease NRF2 protein abundance”.

With `CCc1nc(N)nc(N)c1-c1ccc2c(c1)CCC2` [WCDD119, 5-(2,3-dihydro-1H-inden-5-yl)-6-ethylpyrimidine-2,4-diamine], the IC50 in assay [1] (setting [2]) came out at 0.614 ± 0.021 µM; in assay [1] (setting [3]), 0.557 ± 0.03 µM; in assay [1] (setting [4]), 0.5 µM; in assay [1] (setting [5]) it was 0.57 µM; in assay [1] (setting [6]) it was 0.552 ± 0.003 µM.

As for `CCc1nc(N)nc(N)c1-c1cc(Cl)ccc1Cl` [WCDD120, 5-(2,5-dichlorophenyl)-6-ethylpyrimidine-2,4-diamine], the IC50 in assay [1] (setting [4]) and in assay [1] (setting [5]) was > 10 µM throughout.

Regarding `CCc1nc(N)nc(N)c1-c1cccc(Cl)c1F` [WCDD121, 5-(3-chloro-2-fluorophenyl)-6-ethylpyrimidine-2,4-diamine], the IC50 in assay [1] (setting [4]) and in assay [1] (setting [5]) was > 5 µM in each case.

For `CCc1nc(N)nc(N)c1-c1cccc(N2CCCC2)c1` [WCDD122, 6-ethyl-5-(3-(pyrrolidin-1-yl)phenyl)pyrimidine-2,4-diamine], the concentration for half-maximal inhibition (IC50) in assay [1] (setting [4]) and in assay [1] (setting [5]) was > 5 µM throughout.

For the molecule `CCc1ncnc(N)c1-c1cccc(Cl)c1` [WCDD125, 5-(3-chlorophenyl)-6-ethylpyrimidin-4-amine], the IC50 in assay [1] (setting [4]) and in assay [1] (setting [5]) was > 20 µM in each case.

Turning to `COCCOCCc1nc(N)nc(N)c1-c1cccc(Cl)c1` [WCDD126, 5-(3-chlorophenyl)-6-(2-(2-methoxyethoxy)ethyl)pyrimidine-2,4-diamine], the 50% inhibitory concentration (IC50) in assay [1] (setting [2]) came to 0.461 ± 0.017 µM; in assay [1] (setting [3]), 0.397 ± 0.011 µM; in assay [1] (setting [4]), 0.514 µM; in assay [1] (setting [5]) it was 0.514 µM; in assay [1] (setting [6]), 0.683 ± 0.002 µM.

`Nc1nc(N)c(-c2cccc(Cl)c2)c(CC2CCC2)n1` [WCDD127, 5-(3-chlorophenyl)-6-(cyclobutylmethyl)pyrimidine-2,4-diamine]: the half-inhibitory concentration (IC50) in assay [1] (setting [2]) stood at 0.469 ± 0.002 µM; in assay [1] (setting [3]) it was 0.454 ± 0.006 µM; in assay [1] (setting [4]), 0.456 µM; in assay [1] (setting [5]) it was 0.456 µM; in assay [1] (setting [6]) it was 0.444 ± 0.002 µM.

As for `C#CCCCc1nc(N)nc(N)c1-c1cccc(Cl)c1` [WCDD128, 5-(3-chlorophenyl)-6-(pent-4-yn-1-yl)pyrirnidine-2,4-diamine], the IC50 in assay [1] (setting [2]) amounted to 0.244 ± 0.006 µM; in assay [1] (setting [3]) it was 0.163 ± 0.002 µM; in assay [1] (setting [4]), 0.248 µM; in assay [1] (setting [5]), 0.248 µM; in assay [1] (setting [6]) it was 0.334 ± 0.004 µM.

Take `CCc1nc(NC)nc(NC)c1-c1ccc(Cl)cc1` [WCDD133, 5-(4-chlorophenyl)-6-ethyl-N2,N4-dimethylpyrimidine-2,4-diamine]: the IC50 in assay [1] (setting [4]) was > 20 µM.

With `CCc1nc(N)nc(NC)c1-c1ccc(Cl)cc1` [WCDD133a, 5-(4-chlorophenyl)-6-ethyl-N4-methylpyrimidine-2,4-diamine], the IC50 in assay [1] (setting [4]) was > 20 µM.

With `Nc1ncc(-c2cccc(Cl)c2)c(N)n1` [WCDD134, 5-(3-chlorophenyl)pyrimidine-2,4-diamine], the IC50 in assay [1] (setting [2]) turned out to be 1.84 ± 0.196 µM; in assay [1] (setting [3]), 1.88 ± 0.024 µM; in assay [1] (setting [4]), 1.43 µM; in assay [1] (setting [5]) it was 1.43 µM; in assay [1] (setting [6]) it was 1.84 ± 0.196 µM.

With `NCCCc1nc(N)nc(N)c1-c1cccc(C(F)(F)F)c1` [WCDD135, 6-(3-aminopropyl)-5-(3-(trifluoromethyl)phenyl)pyrimidine-2,4-diamine], the IC50 in assay [1] (setting [4]) was > 20 µM.

Consider `C#CCCC1(CCC(=O)NCCCc2nc(N)nc(N)c2-c2cccc(C(F)(F)F)c2)N=N1` [WCDD136, 3-(3-(but-3-yn-1-yl)-3H-diazirin-3-yl)-N-(3-(2,6-diamino-5-(3-(trifluoromethyl)phenyl)pyrimidin-4-yl)propyl)propanamide], for which the values for the IC50 in assay [1] (setting [4]) and in assay [1] (setting [6]) were ~0.15 µM and 0.153 ± 0.002 µM, respectively.

For `Nc1nc(N)c(-c2cccc(C(F)(F)F)c2)c(CCCNC(=O)CCCC[C@H]2SCC3NC(O)NC32)n1` (stereo partly drawn) [WCDD137, N-(3-(2,6-diamino-5-(3-(trifluoromethyl)phenyl)pyrimidin-4-yl)propyl)-5-((4R)-2-hydroxyhexahydro-1H-thieno[3,4-d]imidazol-4-yl)pentanamide], the IC50 in assay [1] (setting [4]) came out at 4.84 µM; in assay [1] (setting [6]), 4.84 ± 0.284 µM.

Take `C=CCCc1nc(N)nc(N)c1-c1cccc(C(F)(F)F)c1` [WCDD139, 6-(but-3-en-1-yl)-5-(3-(trifluoromethyl)phenyl)pyrimidine-2,4-diamine]: the IC50 in assay [1] (setting [2]) was 0.206 ± 0.0014 µM; in assay [1] (setting [3]), 0.097 ± 0.003 µM; in assay [1] (setting [4]), 0.14 µM; in assay [1] (setting [5]), 0.14 µM; in assay [1] (setting [6]), 0.106 ± 0.003 µM.
